Test results as given in US5506252A, “Substituted N-heteroaryl and N-aryl-1,2-diaminocyclobutene-3,4-diones” (American Home Products Corporation, priority 1994, dated 1996).

tested on: Isolated Rat Bladder Strips; experiment: Inhibition of contractions in isolated rat bladder strips (smooth muscle relaxing activity, KCl-enhanced contractions); assay type: cell-based, Sprague-Dawley rats; conditions: 0.5 h, 15 mM KCl added, 30 minute challenge, read-out: IC50 (concentration required to elicit 50% inhibition of pre-drug contractile activity)
Excerpt: The smooth muscle relaxing activity of the compounds of this invention was established in accordance with standard pharmaceutically accepted test procedures in representative compounds as follows:
Sprague-Dawley rats (150-200 g) are rendered unconscious by CO2 asphyxiation and then euthanized by cervical dislocation. The bladder is removed into warm (37 deg. C.) physiological salt solution (PSS) of the following composition (mM): NaCl, 118.4; KCl, 4.7; CaCl2, 2.5; […]; NaHCO3, 24.9; KH2 PO4, 1.2; glucose, 11.1; EDTA, 0.023; gassed with […]; pH 7.4. The bladder is opened and then cut into strips 1-2 mm in width and 7-10 mm in length. The strips are subsequently suspended in a 10 mL tissue bath under an initial resting tension of 1.5 g. The strips are held in place by two surgical clips one of which is attached to a fixed hook while the other is attached to an isometric force transducer. […] The carbachol is then washed out and the tissue allowed to relax to its resting level of activity. Following one further 30 minute period of recovery, an additional 15 mM KCl are introduced into the tissue bath. This increase in KCl concentration results in a large increase in the amplitude of spontaneous contractions (and initiation of contractions in previously quiescent strips) superimposed upon a small increase in basal tone. Following stabilization of this enhanced level of contractile activity, incremental increases in the concentration of test compound or vehicle are introduced into the tissue bath. Contractile activity is measured for each compound or vehicle concentration during the last minute of a 30 minute challenge.
The isometric force developed by the bladder strips is measured using a […] to elicit 50% inhibition of pre-drug contractile activity (IC50 concentration) is calculated from this concentration-response curve.

IC50 [nM] | SMILES
15800 | O=c1c(Nc2ccncc2)c(N[C@H]2C[C@@H]3CC[C@H]2C3)c1=O (relative stereo) [Example 2, (Exo)-3-(bicyclo[2.2.1]hept-2-ylamino)-4-(pyridin-4-ylamino)-cyclobut-3,-ene-1,2-dione]
1360 | CC(Nc1c(Nc2ccncc2)c(=O)c1=O)C(C)(C)C (stereo not shown) [Example 1, 3-(Pyridin-4-ylamino)-4-(1,2,2-trimethyl-propylamino)-cyclobut-3-ene-1,2-dione]
1950 | CC(Nc1c(Nc2cccnc2)c(=O)c1=O)C(C)(C)C (stereo not shown) [Example 3, 3-(Pyridin-3-ylamino)-4-(1,2,2-trimethyl-propylamino)-cyclobut-3-ene-1,2-dione]
2800 | CC(C)(C)Nc1c(Nc2cccnc2)c(=O)c1=O [Example 7, 3-Tert-butylamino-4-(pyridin-3-ylamino)-cyclobut-3-ene-1,2-dione]
1840 | CC(C)(C)Nc1c(Nc2cccc3cnccc23)c(=O)c1=O [Example 8, 3-Tert-butylamino-4-(isoquinolin-5-ylamino)-cyclobut-3-ene-1,2-dione]
8000 | CC(Nc1c(Nc2cccc3cccnc23)c(=O)c1=O)C(C)(C)C (stereo not shown) [Example 10, 3-(Quinolin-8-ylamino)-4-(1,2,2-trimethyl-propylamino)-cyclobut-3-ene-1,2-dione]
6340 | CC(C)(C)Nc1c(Nc2ccc3cn[nH]c3c2)c(=O)c1=O [Example 19, 3-Tert-butylamino-4-(1H-indazol-6-ylamino)-cyclobut-3-ene-1,2-dione]
520 | CC(Nc1c(Nc2ccc(C#N)cc2)c(=O)c1=O)C(C)(C)C (stereo not shown) [Example 21, 4-[3,4-Dioxo-2-(1,2,2-trimethyl-propylamino)-cyclobut-1-enylamino]-benzonitrile]
21 | CCc1cc(C#N)ccc1Nc1c(N[C@H](C)C(C)(C)C)c(=O)c1=O [Example 24, (+)-(R )-4-[3,4-Dioxo-2-(1,2,2-trimethyl-propylamino)-cyclobut-1-enylamino]-3-ethyl-benzonitrile]
290 | COc1cc(C#N)ccc1Nc1c(N[C@H](C)C(C)(C)C)c(=O)c1=O [Example 25, (+)-(R)-4-[3,4-Dioxo-2-(1,2,2-trimethyl-propylamino)-cyclobut-1-enylamino]-3-methoxy-benzonitrile]

same assay, conditions: 0.5 h, at 30 μM, 15 mM KCl added, 30 minute challenge, read-out: Inhibition of Force (%) at (x) μM

SMILES | inhibition at 30 µM [%]
Nc1c(Nc2cccnc2)c(=O)c1=O [Example 6] | 31
Nc1c(Nc2cccc3cnccc23)c(=O)c1=O [Example 9, 3-Amino-4-(isoquinolin-5-ylamino)-cyclobut-3-ene-1,2-dione] | 43
CC(C)(C)Nc1c(Nc2cnc3ccccc3c2)c(=O)c1=O [Example 14, 3-Tert-butylamino-4-(quinolin-3-ylamino)-cyclobut-3-ene-1,2-dione] | 51
